Here are results for three compounds from paper PMC10708030, “Cytotoxic Natural Products Isolated from Cryptogramma crispa (L.) R. Br” (Molecules, 2023).

For orientation: EC50 means the concentration needed to bring the measured effect to its halfway point.

The subject of series [1] is acute myeloid leukaemia cell line MOLM13. Nature of the series: Cytotoxicity, WST-1 metabolic activity, MOLM13 cells. In kind it is cell-based. Particulars: Homo sapiens, MOLM-13; 72 h incubation, metabolic activity (WST-1), 3 independent experiments. Here is the method: (§1) Stock solutions were prepared by dissolving pure compounds to a final concentration of 20 mM in DMSO. The normal rat kidney epithelial cells (NRK, ATCC no.: CRL-6509) and rat cardiomyoblasts (H9c2, ATCC no.: CRL-1446) were cultured in DMEM medium supplemented with 10% foetal bovine serum (FBS, Invitrogen, Carlsbad, CA, USA). When the cells reached 80% confluence, they were detached in a mild trypsin treatment (0.33 mg/mL trypsin for 5 min at 37 °C), centrifuged (160× g, 4 min), and reseeded in fresh medium to 25% confluence.
The AML cell line MOLM13 (DSMZ no.: ACC554 [24]) was cultured in RPMI-1640 medium enriched with 10% FBS 8mM L-glutamine (Sigma Life Science, London, UK). […]
(§2) […] The plates were further incubated for two hours before the signal was recorded at 450 nm with a reference at 620 nm. […]
(§3) After the recording of WST-1, the cells were then fixed with 2% buffered formaldehyde (pH 7.4) with 0.01 mg/mL of the DNA-specific fluorescent dye, Hoechst 33342. The presence of dead (apoptotic or necrotic) cells was verified via differential interference contrast and fluorescence microscopy as previously described by Oftedal et al. and Myhren et al..
(§4) EC50 values were determined using four-parameter regression analysis described by Viktorsson et al. using SigmaPlot v14 software (Systat Software Inc., San Jose, CA, USA).

In series [2] the test system is rat cardiomyoblasts (H9c2). The experiment in a line: Cytotoxicity, WST-1 metabolic activity, H9c2 cells. It is filed as cell-based. To be noted: 72 h incubation, metabolic activity (WST-1), three experiments. On the procedure:
as §1
(§5) All media were supplemented with 1 IU/mL penicillin and 1 mg/mL streptomycin (both from Cambrex, Liège, Belgium) and incubated in a humidified atmosphere (37 °C, 5% CO2). […]
as §2, §3, §4
In general terms: Tetrazolium assays rely on reduction of a dye to a coloured formazan, in cell work by metabolically active cells.

Series [3] concerns normal rat kidney epithelial cells (NRK). The experiment in a line: Cytotoxicity, WST-1 metabolic activity, NRK cells. To be noted: Epithelial cell, 72 h incubation, metabolic activity (WST-1), three experiments. It is filed as cell-based. Here is the method:
as §1, §5, §2, §3, §4

For series [4] the following is noted: cited from earlier work.
Series [5] deals with myeloid leukaemia HL 60 cells. Particulars: cited from earlier work.

Bounds are passed on as bounds.

As for `Cc1cc2c(c(C)c1CCOC1OC(CO)C(O)C(O)C1O)C(=O)C(C)(C)C2OC(=O)CC(=O)O` [Compound 14, 3(R)-O-malonyl pteroside D], the EC50 is 197.88 ± 0.18 µM in series [1], > 200 µM in series [2] and > 200 µM in series [3].
Regarding `CC1=C2C(=CC(C)(C)[C@@H]2O)C(=O)[C@](C)(O)C12CC2` [illudin M], the antibacterial activity entry in series [4] is recorded as “significant antibacterial activity”. For the same compound, the “cytotoxic effects against HL 60 cells” value in series [5] is 6 to 100 nM.
Consider `CC1=C2C(=C[C@@](C)(CO)[C@@H]2O)C(=O)[C@](C)(O)C12CC2` [illudin S], for which the antibacterial activity result in series [4] is on record as “significant antibacterial activity”.
